Structures are written as SMILES. Active and inactive are the calls of the source. The calls are words filed in the database; no cut-off is given here.

For experiment [1], the target named is T1, Protein deacetylase HDAC6 (Homo sapiens, UniProt Q9UBN7).
T1 sequence (Q9UBN7 whole entry): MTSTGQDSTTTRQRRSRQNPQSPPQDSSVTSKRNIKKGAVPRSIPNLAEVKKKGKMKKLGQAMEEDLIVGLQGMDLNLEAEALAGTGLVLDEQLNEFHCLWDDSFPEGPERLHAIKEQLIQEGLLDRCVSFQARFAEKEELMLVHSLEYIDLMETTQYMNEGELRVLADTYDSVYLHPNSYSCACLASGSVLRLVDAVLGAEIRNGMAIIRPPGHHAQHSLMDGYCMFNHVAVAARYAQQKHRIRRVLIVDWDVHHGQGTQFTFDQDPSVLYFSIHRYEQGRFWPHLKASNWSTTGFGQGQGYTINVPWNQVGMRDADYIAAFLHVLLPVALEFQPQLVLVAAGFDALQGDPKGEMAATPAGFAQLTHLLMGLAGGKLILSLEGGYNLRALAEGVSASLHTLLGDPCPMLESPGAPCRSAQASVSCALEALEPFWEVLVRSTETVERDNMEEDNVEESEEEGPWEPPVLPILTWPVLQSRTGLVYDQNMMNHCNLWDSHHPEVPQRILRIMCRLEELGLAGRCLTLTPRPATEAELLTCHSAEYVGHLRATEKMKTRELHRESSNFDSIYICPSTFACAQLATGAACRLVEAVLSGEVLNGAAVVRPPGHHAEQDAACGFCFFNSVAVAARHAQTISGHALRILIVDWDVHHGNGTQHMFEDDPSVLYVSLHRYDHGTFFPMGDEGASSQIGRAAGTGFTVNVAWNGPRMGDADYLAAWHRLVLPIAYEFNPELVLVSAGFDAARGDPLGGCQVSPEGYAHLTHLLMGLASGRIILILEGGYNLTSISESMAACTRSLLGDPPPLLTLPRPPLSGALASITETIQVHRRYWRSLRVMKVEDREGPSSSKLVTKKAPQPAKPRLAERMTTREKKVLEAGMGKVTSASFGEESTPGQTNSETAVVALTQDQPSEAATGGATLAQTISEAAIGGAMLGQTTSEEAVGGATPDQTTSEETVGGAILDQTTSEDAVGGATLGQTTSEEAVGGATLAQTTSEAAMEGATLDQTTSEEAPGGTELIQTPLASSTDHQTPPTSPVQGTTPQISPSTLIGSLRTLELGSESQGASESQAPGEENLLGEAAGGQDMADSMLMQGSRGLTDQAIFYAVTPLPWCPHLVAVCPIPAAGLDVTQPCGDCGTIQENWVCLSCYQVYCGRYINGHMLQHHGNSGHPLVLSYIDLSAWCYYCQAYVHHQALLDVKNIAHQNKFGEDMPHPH
The experiment in a line: Inhibition of human full length N-terminal GST-tagged HDAC6 expressed in baculovirus infected Sf9 insect cells ZMAL as substrate incubated for 90 mins by fluorescence assay. Type of experiment: cell-based.

For experiment [2], the target named is T2, Histone deacetylase 2 (Homo sapiens, UniProt Q92769). The experiment in a line: Inhibition of recombinant human full length C-terminal FLAG-tagged HDAC2 expressed in baculovirus infected Sf9 insect cells using Boc-Lys(epsilon-acetyl)-AMC as substrate incubated for 90 mins by fluorescence assay. Type of experiment: cell-based.
T2 sequence (Q92769 whole entry): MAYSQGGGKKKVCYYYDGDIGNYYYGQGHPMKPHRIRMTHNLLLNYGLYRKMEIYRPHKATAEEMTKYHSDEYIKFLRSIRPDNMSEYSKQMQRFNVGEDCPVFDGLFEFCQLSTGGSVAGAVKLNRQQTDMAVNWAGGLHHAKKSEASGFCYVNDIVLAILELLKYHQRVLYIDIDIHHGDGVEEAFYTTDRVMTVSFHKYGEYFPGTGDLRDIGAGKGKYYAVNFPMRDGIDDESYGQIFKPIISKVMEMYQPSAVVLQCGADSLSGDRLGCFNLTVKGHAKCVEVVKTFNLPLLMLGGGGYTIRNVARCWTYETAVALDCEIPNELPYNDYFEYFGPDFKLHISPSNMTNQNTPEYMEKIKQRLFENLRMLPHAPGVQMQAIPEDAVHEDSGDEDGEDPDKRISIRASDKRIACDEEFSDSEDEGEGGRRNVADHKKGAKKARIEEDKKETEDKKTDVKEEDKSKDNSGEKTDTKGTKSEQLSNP
For another experiment, the target named is Histone deacetylase 1 (Homo sapiens, UniProt Q13547). The experiment in a line: Inhibition of recombinant human full length C-terminal His/FLAG-tagged HDAC1 expressed in baculovirus infected Sf9 insect cells using ZMAL as substrate incubated for 90 mins by fluorescence assay.
Sequence of Histone deacetylase 1 (Q13547 whole entry): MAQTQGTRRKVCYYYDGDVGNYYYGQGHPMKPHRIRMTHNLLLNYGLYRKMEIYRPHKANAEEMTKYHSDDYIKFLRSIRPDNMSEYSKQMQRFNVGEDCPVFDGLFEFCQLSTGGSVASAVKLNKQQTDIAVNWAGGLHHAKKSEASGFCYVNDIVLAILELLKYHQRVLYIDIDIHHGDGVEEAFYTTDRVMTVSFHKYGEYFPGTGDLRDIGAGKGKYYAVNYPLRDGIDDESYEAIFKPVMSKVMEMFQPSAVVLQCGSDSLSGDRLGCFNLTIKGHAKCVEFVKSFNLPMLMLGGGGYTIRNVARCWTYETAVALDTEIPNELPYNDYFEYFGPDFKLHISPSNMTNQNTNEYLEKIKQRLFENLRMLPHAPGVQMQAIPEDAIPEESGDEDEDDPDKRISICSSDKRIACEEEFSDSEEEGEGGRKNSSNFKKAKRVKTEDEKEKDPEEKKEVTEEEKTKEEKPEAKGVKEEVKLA
In experiment [3] the target is Histone deacetylase. The experiment can be described thus: Inhibition of HDAC in human A2780 cells using Boc-Lys(epsilon-Ac)-AMC as substrate preincubated for 18 hrs followed by substrate addition and measured after 3 hrs by fluorescence assay. The experiment is classed as cell-based.
Experiment [4] addresses Histone deacetylase. The experiment can be described thus: Inhibition of HDAC in human CAL27 cells using Boc-Lys(epsilon-Ac)-AMC as substrate preincubated for 18 hrs followed by substrate addition and measured after 3 hrs by fluorescence assay. The experiment is classed as cell-based.
The subject of experiment [5] is A2780. The experiment in a line: Cytotoxicity against human A2780 cells assessed as reduction in cell survival measured after 72 hrs by MTT assay. Type of experiment: functional, cell-based. The note with it: A2780, 72 h. For orientation: Formazan colour is commonly taken as a measure of viable cells.
In experiment [6] the test system is CAL-27. The experiment can be described thus: Cytotoxicity against human CAL27 cells assessed as reduction in cell survival measured after 72 hrs by MTT assay. The note with it: CAL-27, 72 h. Type of experiment: functional, cell-based.
Experiment [7] concerns the target Histone deacetylase 3/Nuclear receptor corepressor 2 (HDAC3/NCoR2) (Homo sapiens, UniProt O15379). The experiment can be described thus: biochemical. The experiment is classed as cell-based, Sf9.
Description: Inhibition of human recombinant full length C-terminal His-tagged HDAC3 (1 to 428 residues)/N-terminal GST-tagged NCOR2 (395 to 489 residues) expressed in baculovirus infected Sf9 insect cells using Boc-Lys(epsilon-acetyl)-AMC as substrate incubated for 90 mins by fluorescence assay
The target of experiment [8] is T2, Histone deacetylase 2. The experiment can be described thus: Inhibition of recombinant human full length C-terminal FLAG-tagged HDAC2 expressed in baculovirus infected Sf9 insect cells at 10 uM using Boc-Lys(epsilon-acetyl)-AMC as substrate incubated for 90 mins by fluorescence assay relative to control.
Experiment [9] deals with Histone deacetylase 3/Nuclear receptor corepressor 2 (HDAC3/NCoR2) (Homo sapiens) (UniProt O15379+Q9Y618). The experiment can be described thus: Inhibition of human recombinant full length C-terminal His-tagged HDAC3 (1 to 428 residues)/N-terminal GST-tagged NCOR2 (395 to 489 residues) expressed in baculovirus infected Sf9 insect cells at 10 uM using Boc-Lys(epsilon-acetyl)-AMC as substrate incubated for 90 mins by fluorescence assay relative to control.

For experiment [10], the system named is CAL-27. The experiment can be described thus: Potency index, ratio of vorinostat IC50 to test compound IC50 for cytotoxicity against human CAL27 cells. Type of experiment: functional.
For experiment [11], the target named is T2, Histone deacetylase 2. The experiment can be described thus: Inhibition of recombinant human full length C-terminal FLAG-tagged HDAC2 expressed in baculovirus infected Sf9 insect cells at 3.33 uM using Boc-Lys(epsilon-acetyl)-AMC as substrate incubated for 90 mins by fluorescence assay relative to control.
For experiment [12], the system named is A2780. The experiment in a line: Cytotoxicity against human A2780 cells assessed as reduction in cell survival up to 100 uM measured after 72 hrs by MTT assay. Type of experiment: functional, cell-based.

Sequence of Histone deacetylase 3/Nuclear receptor corepressor 2 (HDAC3/NCoR2) (O15379 whole entry): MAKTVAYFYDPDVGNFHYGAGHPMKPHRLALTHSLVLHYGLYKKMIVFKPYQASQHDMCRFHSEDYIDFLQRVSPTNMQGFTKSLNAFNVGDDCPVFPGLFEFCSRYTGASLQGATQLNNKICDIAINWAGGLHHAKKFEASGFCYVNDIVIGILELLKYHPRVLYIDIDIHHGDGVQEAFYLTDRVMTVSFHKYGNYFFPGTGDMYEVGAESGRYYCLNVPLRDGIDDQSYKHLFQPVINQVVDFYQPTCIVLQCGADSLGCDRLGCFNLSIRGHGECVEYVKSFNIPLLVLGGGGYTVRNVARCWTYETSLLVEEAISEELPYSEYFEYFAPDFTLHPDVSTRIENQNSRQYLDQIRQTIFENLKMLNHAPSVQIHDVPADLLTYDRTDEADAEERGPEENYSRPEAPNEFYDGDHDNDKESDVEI
Sequence of Histone deacetylase 3/Nuclear receptor corepressor 2 (HDAC3/NCoR2) (Q9Y618 whole entry, further chain): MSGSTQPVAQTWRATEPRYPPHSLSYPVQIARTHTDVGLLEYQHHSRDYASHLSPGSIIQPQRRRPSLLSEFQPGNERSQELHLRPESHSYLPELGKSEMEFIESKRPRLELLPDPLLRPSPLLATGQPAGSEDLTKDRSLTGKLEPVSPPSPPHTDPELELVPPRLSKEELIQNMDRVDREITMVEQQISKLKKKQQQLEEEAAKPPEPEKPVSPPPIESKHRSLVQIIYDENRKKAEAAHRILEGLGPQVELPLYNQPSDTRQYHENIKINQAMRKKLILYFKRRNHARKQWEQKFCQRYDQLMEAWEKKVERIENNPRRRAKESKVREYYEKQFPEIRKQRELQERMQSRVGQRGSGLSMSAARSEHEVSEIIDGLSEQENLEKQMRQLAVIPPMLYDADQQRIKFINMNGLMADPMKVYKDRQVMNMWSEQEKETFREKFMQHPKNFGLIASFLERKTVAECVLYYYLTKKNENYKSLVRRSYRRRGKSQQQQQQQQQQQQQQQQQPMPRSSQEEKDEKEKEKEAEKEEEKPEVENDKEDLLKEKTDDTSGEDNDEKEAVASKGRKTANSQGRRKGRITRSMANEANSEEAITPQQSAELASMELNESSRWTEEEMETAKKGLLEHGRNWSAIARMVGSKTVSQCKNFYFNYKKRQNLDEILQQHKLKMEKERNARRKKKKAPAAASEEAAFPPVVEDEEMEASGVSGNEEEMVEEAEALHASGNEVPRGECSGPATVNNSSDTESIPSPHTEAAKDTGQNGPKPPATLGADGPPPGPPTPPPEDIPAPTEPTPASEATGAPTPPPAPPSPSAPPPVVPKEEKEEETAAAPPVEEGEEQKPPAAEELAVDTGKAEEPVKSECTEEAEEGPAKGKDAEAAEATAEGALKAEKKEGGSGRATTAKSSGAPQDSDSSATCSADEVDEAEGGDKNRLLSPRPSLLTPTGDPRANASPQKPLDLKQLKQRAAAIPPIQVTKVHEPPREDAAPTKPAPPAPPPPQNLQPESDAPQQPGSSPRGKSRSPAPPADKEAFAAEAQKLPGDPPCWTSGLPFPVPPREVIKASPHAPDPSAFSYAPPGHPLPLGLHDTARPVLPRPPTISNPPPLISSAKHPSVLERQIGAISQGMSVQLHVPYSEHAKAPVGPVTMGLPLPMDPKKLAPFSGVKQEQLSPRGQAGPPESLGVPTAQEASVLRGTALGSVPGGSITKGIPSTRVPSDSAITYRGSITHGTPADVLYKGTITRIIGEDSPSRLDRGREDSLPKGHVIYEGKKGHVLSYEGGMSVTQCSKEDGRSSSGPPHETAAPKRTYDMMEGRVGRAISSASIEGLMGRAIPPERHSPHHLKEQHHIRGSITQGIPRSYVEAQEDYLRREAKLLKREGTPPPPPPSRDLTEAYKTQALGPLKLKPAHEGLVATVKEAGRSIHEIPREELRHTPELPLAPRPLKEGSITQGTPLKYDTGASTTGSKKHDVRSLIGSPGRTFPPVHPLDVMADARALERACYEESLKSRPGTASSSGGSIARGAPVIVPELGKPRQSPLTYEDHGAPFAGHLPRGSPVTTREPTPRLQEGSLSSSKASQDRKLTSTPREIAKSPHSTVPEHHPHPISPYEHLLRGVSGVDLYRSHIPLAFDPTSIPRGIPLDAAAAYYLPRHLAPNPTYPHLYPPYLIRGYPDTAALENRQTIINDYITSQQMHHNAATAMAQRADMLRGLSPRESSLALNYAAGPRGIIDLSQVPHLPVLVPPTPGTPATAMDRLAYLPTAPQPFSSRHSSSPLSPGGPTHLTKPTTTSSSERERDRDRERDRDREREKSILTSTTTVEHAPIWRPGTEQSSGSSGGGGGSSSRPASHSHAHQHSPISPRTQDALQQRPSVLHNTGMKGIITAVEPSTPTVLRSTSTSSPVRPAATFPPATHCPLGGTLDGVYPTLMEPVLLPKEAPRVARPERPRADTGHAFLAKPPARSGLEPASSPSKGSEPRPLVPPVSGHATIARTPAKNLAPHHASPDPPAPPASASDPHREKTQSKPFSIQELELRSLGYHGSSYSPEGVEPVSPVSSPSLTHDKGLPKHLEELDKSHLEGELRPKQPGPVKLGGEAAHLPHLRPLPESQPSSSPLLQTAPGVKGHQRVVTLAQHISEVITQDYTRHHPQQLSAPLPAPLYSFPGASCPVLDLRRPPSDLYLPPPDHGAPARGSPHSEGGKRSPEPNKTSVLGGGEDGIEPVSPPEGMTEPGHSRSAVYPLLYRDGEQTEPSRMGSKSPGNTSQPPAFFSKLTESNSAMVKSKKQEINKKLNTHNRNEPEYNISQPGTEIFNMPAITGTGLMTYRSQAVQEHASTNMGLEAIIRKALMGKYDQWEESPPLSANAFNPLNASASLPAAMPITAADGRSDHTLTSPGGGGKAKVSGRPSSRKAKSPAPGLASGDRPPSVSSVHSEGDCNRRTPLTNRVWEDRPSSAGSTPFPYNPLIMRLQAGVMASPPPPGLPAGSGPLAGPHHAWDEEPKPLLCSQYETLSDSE

What is called IC50 is the midpoint of a concentration-inhibition curve. Consider `Nc1ccccc1NC(=O)CCCCCN(CC(=O)NC1CCCCC1)C(=O)c1ccccc1`, for which the IC50 in [1] was over 10 µM; on Histone deacetylase 2 [2] it was 5.95 µM; at Histone deacetylase 1, 5460 nM; against Histone deacetylase [3], 43.6 µM; against Histone deacetylase [4], 21.9 µM; in the experiment with A2780 [5] it was 181 µM. Moreover, the results for the IC50 (in the experiment with CAL-27 [6]; in [7]) were 30.9 µM and 858 nM, respectively.
As to `Nc1ccccc1NC(=O)CCCCCN(CC(=O)NC1CCCCC1)C(=O)c1cccc2ccccc12`, the IC50 in [1] is over 10 µM; on Histone deacetylase 2 [2], 5.38 µM; at Histone deacetylase 1, 6560 nM; against Histone deacetylase [3], 33.1 µM; against Histone deacetylase [4] it was 13 µM; in the experiment on A2780 [5] it was 18.1 µM. Further, the IC50 in the experiment on CAL-27 [6] was found to be 24.9 µM; in experiment [7] it was 646 nM.
In the case of `Cc1cc(C)cc(C(=O)N(CCCCCC(=O)Nc2ccccc2N)CC(=O)NC2CCCCC2)c1`, the IC50 in experiment [1] was over 10 µM; at Histone deacetylase 2 [2], 6.66 µM; at Histone deacetylase 1, 5550 nM; at Histone deacetylase [3] it was 22.8 µM; on Histone deacetylase [4], 12.1 µM; in the experiment with A2780 [5], 42 µM. For the same compound, the IC50 with CAL-27 [6] stood at 17.5 µM; in experiment [7], 481 nM.
Turning to `CN(C)c1ccc(C(=O)N(CCCCCC(=O)Nc2ccccc2N)CC(=O)NCc2ccccc2)cc1`, the IC50 in experiment [1] is over 10 µM; on Histone deacetylase 2 [2], 1.24 µM; at Histone deacetylase 1, 1580 nM; against Histone deacetylase [3], 9.25 µM; on Histone deacetylase [4] it was 4.33 µM; in the experiment on A2780 [5], 18.5 µM. The IC50 was 16 µM with CAL-27 [6] and 312 nM in experiment [7].
In the case of `CN(C)c1ccc(C(=O)N(CCCCCC(=O)Nc2cc(F)ccc2N)CC(=O)NCc2ccccc2)cc1`, the concentration for half-maximal inhibition (IC50) was over 10 µM in [1]; 3.06 µM on Histone deacetylase 2 [2]; 1980 nM at Histone deacetylase 1; 13.4 µM on Histone deacetylase [3]; 6.82 µM at Histone deacetylase [4]; 25.9 µM with A2780 [5]. In addition, the IC50 was found to be 20.2 µM in the experiment on CAL-27 [6] and 369 nM in experiment [7].
Usually inhibition stands for the change of the read-out against control, counted positive when it falls. With `COc1ccc(CNC(=O)CN(CCCCCC(=O)Nc2ccccc2N)C(=O)c2cc(C)cc(C)c2)cc1`, the concentration for half-maximal inhibition (IC50) is over 10 µM in experiment [1]; 2080 nM at Histone deacetylase 1; 3.53 µM against Histone deacetylase [3]; 4.81 µM against Histone deacetylase [4]; 24.6 µM with A2780 [5]; 17.4 µM in the experiment with CAL-27 [6]. In addition, the inhibition was 30% on Histone deacetylase 2 [8] and 49% in experiment [9].
As to `Cc1cc(C)cc(C(=O)N(CC(=O)NCc2ccccc2)Cc2ccc(C(=O)Nc3cc(F)ccc3N)cc2)c1`, the IC50 is over 10 µM in experiment [1]; 277 nM on Histone deacetylase 1; 1.43 µM at Histone deacetylase [3]; 0.47 µM at Histone deacetylase [4]; 5.4 µM in the experiment on A2780 [5]; 5.72 µM in the experiment on CAL-27 [6]. Moreover, the results for the inhibition (on Histone deacetylase 2 [8]; in experiment [9]) were 25% and 23%, respectively.
In the case of `Nc1ccccc1NC(=O)c1ccc(CN(CC(=O)NCc2ccccc2)C(=O)c2cccnc2)cc1`, the IC50 was over 10 µM in experiment [1]; 0.786 µM on Histone deacetylase 2 [2]; 103 nM on Histone deacetylase 1; 1.06 µM on Histone deacetylase [3]; 1.01 µM against Histone deacetylase [4]; 8.9 µM in the experiment with A2780 [5]. Besides, the IC50 with CAL-27 [6] stood at 11.2 µM; in [7], 878 nM.
On to `Cc1cc(C)cc(C(=O)N(CCCCCC(=O)Nc2ccccc2N)CC(=O)NCc2ccccc2)c1`, for which the half-inhibitory concentration (IC50) is over 10 µM in experiment [1]; 1.6 µM on Histone deacetylase 2 [2]; 1160 nM on Histone deacetylase 1; 8.71 µM against Histone deacetylase [3]; 3.93 µM against Histone deacetylase [4]; 20.9 µM in the experiment with A2780 [5]. For the same compound, the IC50 is 13.7 µM in the experiment with CAL-27 [6] and 250 nM in experiment [7].
Consider `Cc1cc(C)cc(C(=O)N(CC(=O)NCc2ccccc2)Cc2ccc(C(=O)Nc3ccccc3N)cc2)c1`, for which the IC50 in [1] is over 10 µM; at Histone deacetylase 2 [2], 0.485 µM; at Histone deacetylase 1, 62 nM; at Histone deacetylase [3], 0.81 µM; against Histone deacetylase [4], 0.18 µM; in the experiment on A2780 [5], 2.8 µM. The IC50 in the experiment with CAL-27 [6] amounted to 1.6 µM. The inhibition in experiment [9] is 32%. Moreover, in the experiment with CAL-27 [10], the “Ratio IC50” value amounted to 1.7.
As to `Cc1cc(C)cc(CNC(=O)CN(CCCCCC(=O)Nc2ccccc2N)C(=O)c2cc(C)cc(C)c2)c1`, the IC50 was over 10 µM in experiment [1]; 4.1 µM at Histone deacetylase 2 [2]; 484 nM at Histone deacetylase 1; 3.17 µM against Histone deacetylase [3]; 3.15 µM on Histone deacetylase [4]; 5.1 µM in the experiment on A2780 [5]. The values for the IC50 (in the experiment with CAL-27 [6]; in experiment [7]) were 19.3 µM and 583 nM, respectively.
For the compound `Cc1ccc(CNC(=O)CN(CCCCCC(=O)Nc2ccccc2N)C(=O)c2cc(C)cc(C)c2)cc1`, the IC50 was over 10 µM in [1]; 5.03 µM at Histone deacetylase 2 [2]; 1100 nM at Histone deacetylase 1; 4.48 µM on Histone deacetylase [3]; 4.57 µM against Histone deacetylase [4]; 9.8 µM in the experiment on A2780 [5]. Also, the IC50 in the experiment with CAL-27 [6] worked out at 18.2 µM; in experiment [7], 478 nM.
For the compound `CN(C)c1ccc(C(=O)N(CC(=O)NCc2ccccc2)Cc2ccc(C(=O)Nc3cc(-c4ccccc4)ccc3N)cc2)cc1`, the concentration for half-maximal inhibition (IC50) was over 10 µM in experiment [1]; 39 nM at Histone deacetylase 1; 2.62 µM against Histone deacetylase [3]; 0.85 µM at Histone deacetylase [4]; 11.1 µM in the experiment on CAL-27 [6]; over 10000 nM in [7]. In addition, the figures for the inhibition (on Histone deacetylase 2 [11]; in experiment [9]) were 36% and under 15%, respectively. Besides, the result in the experiment on A2780 [12] was inactive.
Consider `Nc1ccccc1NC(=O)CCCCCN(CC(=O)NCc1ccccc1)C(=O)c1cccc2ccccc12`, for which the IC50 in experiment [1] was over 10 µM; at Histone deacetylase 2 [2], 1.9 µM; on Histone deacetylase 1, 1670 nM; against Histone deacetylase [3], 10.2 µM; on Histone deacetylase [4] it was 4.13 µM; in the experiment with A2780 [5], 22.8 µM. Besides, the IC50 with CAL-27 [6] is 11 µM; in experiment [7], 163 nM.

The record behind these values is ChEMBL document CHEMBL4334526, “Synthesis of Peptoid-Based Class I-Selective Histone Deacetylase Inhibitors with Chemosensitizing Properties” (J Med Chem, 2019).
